Reference: patent publication US20110294728A1, “Antiviral Polypeptides” (priority 2008, published 2011)
Where no end group is shown, it is not given here.

Experiments:
HIV-1 strain 2914 = conditions: peptide with Pep-1 or Pep-3 at ratio 20/1, combinations with Pep-3
in vivo = conditions: for half-life: female, BALB/c, mouse, in vivo, iv, 10 μg; for tissues with peptide accumulation: formulated with CADY-2c/CADY-1S1, after 24 hr; for time of optimal distribution: formulated with CADY-2c/CADY-1S1, intravenous; for distribution of naked peptide: intravenous, after 15 min
Procedure: In order to evaluate the potency of the peptides p27 (SEQ ID NO: 25) and p16 (SEQ ID NO: 19) in vivo, it was analyzed their ability to be systemically administrated by intravenous injection in mice (BALB/c; 6 to 8 week-old female mice). Peptides were either radio-labeled at the N-terminal amino acid or fluorescently labeled with Alexa® Fluo700 probe. […] Particles were injected intravenously (100 μl) and kinetic of peptide distribution were followed by fluorescence live imaging. 24 hr after injection, the level of peptides in the different tissues were quantified by fluorescence and radioactivity.

HIV-1 integrase = molecular target: T1, HIV-1 integrase (Human immunodeficiency virus type 1 group M subtype B, UniProt P04585); assay: biochemical
T1 construct: Integrase is a 32 kDA viral protein that is biologically active under a multimeric form
Procedure: (§1) The simultaneous measurement of integrase-DNA interaction and subsequent 3′-processing activity by steady-state fluorescence anisotropy was performed as described in Guiot et al. (2006). […] After the initial DNA-binding step (performed at 25° C.), the 3′-processing activity was measured at 37° C. by fixed-time experiments: The reaction was stopped at varying times by adding SDS (0.25% final) which disrupts all IN-DNA complexes in the sample. The IN-mediated cleavage of the terminal GT dinucleotide (labeled by fluorescein on the 3′-end) leads to a significant decrease of r as compared to the r value corresponding to the fluorescein-labeled unprocessed DNA substrate. The fraction of released dinucleotide is calculated by using Eq. (1): […]

HIV-1 RT = molecular target: T2, HIV-1 RT (Human immunodeficiency virus type 1 group M subtype B, UniProt P03366); assay: biochemical
T2 construct: The heterodimeric p66/p51 RT was eluted with an imidazole gradient; p66 and p51 derived from p66 by proteolytic cleavage of the C-terminal RNAse H domain; made in house; host or cells: E. coli (M15 for the His-tagged subunits)
Procedure, shortened: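 HIV-1 RT (20 nM, as added) was preincubated 23 h with increasing peptide concentrations, then reaction buffer was added (Tris pH 8.0, KCl, MgCl2, DTT, 0.15 µM poly(rA)-(dT)15, 15 µM dTTP plus 3H-dTTP, as added) for 30 min at 37 °C. Incorporated 3H was measured after TCA precipitation and filtration by scintillation counting; mean of three experiments.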

IN/DNA complexes [1] = molecular target: T3, IN/DNA complexes (Human immunodeficiency virus type 1 group M subtype B, UniProt P04585); assay: DNA-binding of integrase, fluorescence anisotropy; assay type: biochemical, HIV-1
Procedure: as §1

IN/DNA complexes [2] = molecular target: T3, IN/DNA complexes; assay: Dissociation of pre-formed IN-DNA substrate complexes; assay type: biochemical, HIV-1
Procedure: For dissociation experiments, IN-DNA substrate complexes were pre-formed at 25° C. before addition of peptides. The peptide-mediated dissociation of complexes was then studied at the same temperature by measuring the decrease in the r value as a function of time.

HIV-1 strain 1650 = conditions: peptide with Pep-1 or Pep-3 at ratio 20/1, combinations with Pep-3
HIV-1 strain RF = conditions: strain RF (RP in Table 5); peptide with Pep-1 or Pep-3 at ratio 20/1; combinations with Pep-3
wild type HIV 1 virus = assay: HIV propagation in Hu-PBL-SCID mice, wild type virus; assay type: in vivo, Hu-PBL-SCID transgenic mice; conditions: 20 mg/kg; peptides formulated with CADY-2c/CADY-1S1; HIV-1 DNA copies in splenocyte extracts
Procedure: The potency of the peptides p27 (SEQ ID NO: 25) and p16 (SEQ ID NO: 19) was assessed in vivo following intravenous challenge of Hu-PBL-SCID transgenic mice (in which human (hu) peripheral blood leukocytes (PBLs) from healthy Epstein-Barr virus (EBV)-seropositive donors are injected into severe combined immunodeficiency (SCID) mice; Mosier et al., 1988). The mice (6 to 8 week-old male mice, 5 animals per group) were infected with wild type HIV 1 virus or efavirenz-resistance HIV strain harbouring K103N and N341V mutations on reverse transcriptase. Infected mice were treated with peptides formulated with the peptide vector CADY-2c (see above) in water at a ratio 1/20, and then particles were coated with 3% of CADY-1S1 (see above), as described in International Application WO 2007/069090. Particles were injected intravenously (100 μl) every 2 days for 1 week, then HIV-1 copy were quantified by quantitative PCR. Efavirenz (a non-nucleoside reverse transcriptase inhibitor; EFZ) was used a positive drug control.

HIV-1 strain 2165 = conditions: peptide with Pep-1 or Pep-3 at ratio 20/1, combinations with Pep-3

GTKWLTEVWPL [Peptide P16]
IC50 (HIV-1 strain 2914): 1.7 nM | half-life (in vivo): < 1 h | tissues with peptide accumulation (in vivo): liver, brain, stomach, kidney, lung | time of optimal distribution (in vivo): 5 h | distribution of naked peptide (in vivo): accumulated mainly in the bladder | EC50 (HIV-1 integrase): 10000 nM | Ki (HIV-1 integrase): 10000 nM | Ki (HIV-1 RT): 14400 nM | reduction of efficiency (higher Ki) relative to PAW (HIV-1 RT; relative to PAW): 20 fold | EC50 (IN/DNA complexes [1]): 8000 nM | EC50 (IN/DNA complexes [2]): 11000 nM | IC50 (HIV-1 strain 1650): 7.5 nM | IC50 (HIV-1 strain RF): 10.9 nM | HIV propagation in vivo (in words) (wild type HIV 1 virus): block HIV propagation in vivo | IC50 (HIV-1 strain 2165): 2.7 nM

GTKWLTEWIPLTAE [Peptide P27]
IC50 (HIV-1 strain 2914): 0.2 nM | half-life (in vivo): < 1 h | tissues with peptide accumulation (in vivo): liver, brain, stomach, kidney, lung | time of optimal distribution (in vivo): 5 h | distribution of naked peptide (in vivo): accumulated mainly in the bladder | EC50 (HIV-1 integrase): > 100000 nM | Ki (HIV-1 integrase): > 100000 nM | Ki (HIV-1 RT): 50 ± 0.01 nM | increase of efficiency relative to PAW (HIV-1 RT; relative to PAW): 14 fold | EC50 (IN/DNA complexes [1]): > 100000 nM | EC50 (IN/DNA complexes [2]): > 100000 nM | IC50 (HIV-1 strain 1650): 0.8 nM | IC50 (HIV-1 strain RF): 1.5 nM | HIV propagation in vivo (in words) (wild type HIV 1 virus): block HIV propagation in vivo | IC50 (HIV-1 strain 2165): 2.6 nM
